In patent US6869964B2, “Heterocyclicsulfonamide hepatitis C virus inhibitors” (Bristol-Myers Squibb Company, priority 2002, dated 2005):

Legend:
[1] = target: T1, HCV NS3/4A protease complex (J4L6S strain) (Hepatitis C virus genotype 1b, UniProt O92972, C1454S/C1711G); experiment: Recombinant HCV NS3/4A protease complex FRET peptide assay, J4L6S strain; format: biochemical, HCV genotype 1b
T1 construct: HCV NS3/4A protease complex (amino acids 1027 to 1711); inferred from pET21b vector and Ni-NTA purification; made in house; host or cells: Escherichia coli BL21 (DE3), pET21b
Excerpt: Recombinant HCV NS3/4A Protease Complex FRET Peptide Assay
The purpose of this in vitro assay was to measure the inhibition of HCV NS3 protease complexes, derived from the BMS, H77C or J4l6S strains, as described below, by compounds of the present invention. This assay provides an indication of how effective compounds of the present invention would be in inhibiting HCV proteolytic activity.
Serum from an HCV-infected patient was obtained from Dr. T. Wright, San Francisco Hospital. An engineered full-length cDNA template of the HCV genome (BMS strain) was constructed from DNA fragments obtained by reverse transcription-PCR (RT-PCR) of serum RNA and using primers selected on the basis of homology between other genotype la strains. From the determination of the entire genome sequence, a genotype la was assigned to the HCV isolate according to the classification of Simmonds et al. (See P Simmonds, K A Rose, S Graham, S W Chan, F McOmish, B C Dow, E A Follett, P L Yap and H Marsden, J. Clin. Microbiol., 31(6), 1493-1503 (1993)). […]

[2] = tested on: human pancreatic chymotrypsin; experiment: Specificity assay, human pancreatic chymotrypsin; format: biochemical; conditions: 2 hr enzyme-inhibitor pre-incubation
Method: The specificities of compounds of the present invention were determined against a variety of serine proteases: human sputum elastase (HS), porcine pancreatic elastase (PPE) and human pancreatic chymotrypsin and one cysteine protease: human liver cathepsin B. In all cases a 96-well plate format protocol using colorimetric p-nitroaniline (pNA) substrate specific for each enzyme was used as described previously (CT 2633 application) with some modifications to the serine protease assays.
Each assay included a 2 hr enzyme-inhibitor pre-incubation at RT followed by addition of substrate and hydrolysis to ˜30% conversion as measured on a Spectramax Pro microplate reader. Compound concentrations varied from 100 to 0.4 μM depending on their potency.
The final conditions and protocol for the serine protease assays were: • 50 mM Tris(hydroxymethyl)aminomethane hydrochloride (Tris-HCl) pH8, • 0.5M Sodium Sulfate (Na2SO4), 50 mM NaCl, 0.1 mM EDTA, 3% DMSO, • 0.01% Tween-20 with: 133 μM succ-AAA-pNA and 20 nM HS or 8 nM PPE; 100 μM succ-AAPF-pNA and 250 pM Chymotrypsin.
The percentage of inhibition was calculated using the formula: [1−((UVinh−UVblank)/(UVctl−UVblank))]×100
A non-linear curve fit was applied to the inhibition-concentration data, and the 50% effective concentration (IC50) was calculated by the use of Excel Xl-fit software.

T1 sequence (O92972 1658-1711, stated change not applied): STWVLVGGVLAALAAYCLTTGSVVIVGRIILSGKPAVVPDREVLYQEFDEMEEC
T1 sequence (O92972 1027-1711, looked up, stated change not applied): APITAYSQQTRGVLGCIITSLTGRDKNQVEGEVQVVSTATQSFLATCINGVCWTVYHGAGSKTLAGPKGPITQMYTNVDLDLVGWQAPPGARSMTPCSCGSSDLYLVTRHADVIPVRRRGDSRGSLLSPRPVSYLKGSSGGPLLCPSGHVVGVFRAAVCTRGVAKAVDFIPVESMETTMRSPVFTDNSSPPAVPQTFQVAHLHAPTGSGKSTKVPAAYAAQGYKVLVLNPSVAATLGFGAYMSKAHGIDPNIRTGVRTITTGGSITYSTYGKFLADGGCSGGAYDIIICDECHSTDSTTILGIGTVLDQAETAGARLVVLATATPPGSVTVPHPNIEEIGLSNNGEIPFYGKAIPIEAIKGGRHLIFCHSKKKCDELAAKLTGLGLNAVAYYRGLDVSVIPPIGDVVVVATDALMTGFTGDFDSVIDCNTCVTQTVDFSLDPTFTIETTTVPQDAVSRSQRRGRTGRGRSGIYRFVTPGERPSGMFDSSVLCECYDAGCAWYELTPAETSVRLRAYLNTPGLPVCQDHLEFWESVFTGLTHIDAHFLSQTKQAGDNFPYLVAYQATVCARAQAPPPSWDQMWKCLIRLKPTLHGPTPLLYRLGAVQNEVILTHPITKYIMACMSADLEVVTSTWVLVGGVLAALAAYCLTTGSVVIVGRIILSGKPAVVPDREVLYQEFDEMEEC

## C=CC1C[C@]1(NC(=O)[C@@H]1C[C@@H](Oc2cc(-c3ccccc3)nc3cc(OC)ccc23)CN1C(=O)[C@@H](NC(=O)OC(C)(C)C)C(C)(C)C)C(=O)NS(=O)(=O)c1cccs1 (stereo in doubt) [Compound 1, (1-{4-(7-Methoxy-2-phenylquinolin-4-yloxy)-2-[1-(thiophene-2-sulfonylaminocarbonyl)-2-vinyl-cyclopropylcarbamoyl]-pyrrolidine-1-carbonyl}-2,2-dimethylpropyl)carbamic acid tert-butyl ester]
[1]
  IC50: 1.6 nM
[2]
  IC50: > 50000 nM
